Source: patent US20200377496A1, “INDOLE AND BENZIMIDAZOLE DERIVATIVES AS DUAL 5-HT2A and 5-HT6 RECEPTOR ANTAGONISTS” (ADAMED PHARMA, S.A., priority 2018, published 2020)
Read-outs that look alike come from different tables or passages of the source.

Legend:
[1] = target: human 5-HT2A receptor (Homo sapiens, UniProt P28223); test: 5-HT2A receptor binding assay ([3H]-ketanserin radioligand)
Procedure: (§1) Preparation of Solutions of Test and Reference Compounds.
(§2) 1 mM stock solutions of tested compounds were prepared in DMSO. Serial dilutions of compounds were prepared in 96-well microplate in assay buffers using automated pipetting system epMotion 5070 (Eppendorf). Each compound was tested in 10 concentrations from 1.0E-6 to 1.0E-11 M (final concentration).
5-HT2A Receptor Binding Assay.
Radioligand binding was performed using membranes from CHO K1 cells stably transfected with the human 5-HT2A receptor (PerkinElmer). All assays were carried out in duplicates. 50 μl working solution of the tested compounds, 50 μl [3H]-ketanserin (final concentration 1 nM) and 150 μl diluted membranes (7 μg protein per well) prepared in assay buffer (50 mM Tris, pH 7.4, 4 mM CaCl2, 0.1% ascorbic acid) were transferred to polypropylene 96-well microplate using 96-wells pipetting station Rainin Liquidator (MettlerToledo). Mianserin (10 μM) was used to define nonspecific binding. Microplate was covered with a sealing tape, mixed and incubated for 60 minutes at 27° C. The reaction was terminated by rapid filtration through GF/B filter mate presoaked with 0.5% polyethyleneimine for 30 minutes. Ten rapid washes with 200 μl 50 mM Tris buffer (4° C., pH 7.4) were performed using automated harvester system Harvester-96 MACH III FM (Tomtec). The filter mates were dried at 37° C. in forced air fan incubator and then solid scintilator MeltiLex was melted on filter mates at 90° C. for 5 minutes. Radioactivity was counted in MicroBeta2 scintillation counter (PerkinElmer). Data were fitted to a one-site curve-fitting equation with Prism 6 (GraphPad Software) and Ki values were estimated from the Cheng-Prusoff equation.

[2] = target: 5-HT6 receptors (Homo sapiens, UniProt P50406); test: 5-HT6 receptor binding assay ([3H]-LSD radioligand); details: membranes from CHO-K1 cells with human 5-HT6 receptor, [3H]-LSD 1 nM
Procedure: as §1, §2
5-HT6 Receptor Binding Assay.
Radioligand binding was performed using membranes from CHO-K1 cells stably transfected with the human 5-HT6 receptor (PerkinElmer). All assays were carried out in duplicates. 50 μl working solution of the tested compounds, 50 μl [3H]-LSD (final concentration 1 nM) and 150 μl diluted membranes (8 μg protein per well) prepared in assay buffer (50 mM Tris, pH 7.4, 10 mM MgCl2, 0.1 mM EDTA) were transferred to polypropylene 96 well microplate using 96-wells pipetting station Rainin Liquidator (MettlerToledo). Methiothepin (10 μM) was used to define nonspecific binding. Microplate was covered with a sealing tape, mixed and incubated for 60 minutes at 37° C. The reaction was terminated by rapid filtration through GF/A filter mate presoaked with 0.5% polyethyleneimine for 30 minutes. Ten rapid washes with 200 μl 50 mM Tris buffer (4° C., pH 7.4) were performed using automated harvester system Harvester-96 MACH III FM (Tomtec). The filter mates were dried at 37° C. in forced air fan incubator and then solid scintilator MeltiLex was melted on filter mates at 90° C. for 5 minutes. Radioactivity was counted in MicroBeta2 scintillation counter (PerkinElmer). Data were fitted to a one-site curve-fitting equation with Prism 6 (GraphPad Software) and Ki values were estimated from the Cheng-Prusoff equation.

[3] = target: human GPCR 5-HT6 (Homo sapiens, UniProt P50406); test: Cellular aequorin-based functional assay, 5-HT6; assay type: cell-based; details: for 5-HT6 AGO EC50 [nM]: agonist mode, CHO-K1 aequorin cells; for Kb: antagonist mode, reference agonist serotonin 40 nM (EC80), read-out: 5-HT6 ANT Kb
Procedure: as §1
(§3) 1 mM stock solutions of the tested compounds were prepared in DMSO. Serial dilutions were prepared in 96-well microplate in assay buffers using automated pipetting system epMotion 5070 (Eppendorf). Two independent experiments in duplicates were performed and 6 to 10 concentrations were tested.
(§4) 5-HT2A and 5-HT6 Functional Activity Assays.
(§5) Cellular aequorin-based functional assays were performed with γ-irradiated recombinant CHO-K1 cells expressing mitochondrially-targeted Aequorin, human GPCR (5-HT2A or 5-HT6) and the promiscuous G protein α16 (PerkinElemer). Assays were performed according to the standard protocol provided by the manufacturer. After thawing, cells were transferred to assay buffer (DMEM/HAM's F12 with 0.1% protease-free BSA) and centrifuged. Cell pellet was resuspended in assay buffer and coelenterazine h was added at final concentrations of 5 μM. Cell suspension was incubated at 21° C., protected from light with constant agitation, for 4 hours and then diluted with assay buffer to a concentration of 250,000 cells/ml. After 1 hour incubation 50 yl cell suspension was dispensed using automatic injectors built in radiometric and luminescence plate counter MicroBeta2 LumiJET (PerkinElmer, USA) into white opaque 96-well microplate preloaded with tested compounds. Immediate light emission generated following calcium mobilization was recorded for 30-60 seconds. In antagonist mode, after 15-30 minutes incubation reference agonist was added to the above assay mix and light emission was recorded again. Final concentration of reference agonist was equal EC80: serotonin 40 nM for 5-HT6 receptor and α-methylserotonin 30 nM for 5-HT2A receptor. The assays were performed in the agonist mode (5-HT6 AGO and 5-HT2A AGO) as well as antagonist mode (5-HT6 ANT and 5-HT2A ANT).
(§6) IC50 and EC50 were determined by non-linear regression analysis using GraphPad Prism 6.0 software. The log IC50 was used to obtain the Kb by applying the Cheng-Prusoff approximation.

[4] = target: human GPCR 5-HT2A (Homo sapiens, UniProt P28223); test: Cellular aequorin-based functional assay, 5-HT2A; assay type: cell-based; details: for 5-HT2A AGO EC50 [nM]: agonist mode, CHO-K1 aequorin cells
Procedure: as §1, §3, §4, §5, §6

[5] = membranes from CHO K1 cells with human 5-HT2A receptor, [3H]-ketanserin 1 nM, read-out: 5-HT2A Ki
[6] = antagonist mode, reference agonist α-methylserotonin 30 nM (EC80), read-out: 5-HT2A ANT Kb

human 5-HT2A receptor, sequence (P28223 whole entry): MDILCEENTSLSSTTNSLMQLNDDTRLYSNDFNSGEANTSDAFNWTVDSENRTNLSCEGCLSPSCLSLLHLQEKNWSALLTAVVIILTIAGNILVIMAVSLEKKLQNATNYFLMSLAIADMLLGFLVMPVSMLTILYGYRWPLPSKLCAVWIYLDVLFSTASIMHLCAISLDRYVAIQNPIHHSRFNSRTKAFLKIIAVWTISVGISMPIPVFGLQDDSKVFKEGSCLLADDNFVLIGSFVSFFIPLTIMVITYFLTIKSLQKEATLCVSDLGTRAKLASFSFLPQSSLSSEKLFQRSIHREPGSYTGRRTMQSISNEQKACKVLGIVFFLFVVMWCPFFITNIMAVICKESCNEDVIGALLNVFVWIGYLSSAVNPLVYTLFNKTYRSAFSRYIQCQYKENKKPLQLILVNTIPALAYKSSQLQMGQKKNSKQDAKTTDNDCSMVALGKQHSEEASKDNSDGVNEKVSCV
human GPCR 5-HT2A, sequence (P28223 whole entry): as above
human GPCR 5-HT6, sequence (P50406 whole entry): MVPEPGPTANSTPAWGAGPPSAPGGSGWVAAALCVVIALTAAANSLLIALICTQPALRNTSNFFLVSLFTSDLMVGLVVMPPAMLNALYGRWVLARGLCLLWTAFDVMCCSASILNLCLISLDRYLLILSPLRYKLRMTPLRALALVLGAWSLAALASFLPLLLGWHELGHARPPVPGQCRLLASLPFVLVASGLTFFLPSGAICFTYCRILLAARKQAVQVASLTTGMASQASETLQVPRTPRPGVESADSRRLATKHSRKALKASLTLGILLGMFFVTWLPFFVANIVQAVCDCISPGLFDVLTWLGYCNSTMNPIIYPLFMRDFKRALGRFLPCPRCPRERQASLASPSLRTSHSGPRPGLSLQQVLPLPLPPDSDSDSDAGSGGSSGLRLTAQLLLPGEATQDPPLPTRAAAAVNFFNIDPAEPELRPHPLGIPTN
5-HT6 receptors, sequence (P50406 whole entry): as above

SMILES	Ki [1, 5] [nM]	Ki [2] [nM]	5-HT6 AGO EC50 [nM] [3]	Kb [3] [nM]	5-HT2A AGO EC50 [nM] [4]	Kb [4, 6] [nM]	Ki [1] [nM]	Kb [4] [nM]
CN1CCN(c2cccc3c2nc(C(F)(F)F)n3Cc2ccccc2)CC1 [Compound 2, 1-benzyl-4-(4-methylpiperazin-1-yl)-2-(trifluoromethyl)-1H-benzimidazole]	3.1	2.2						
FC(F)(F)c1nc2c(N3CCNCC3)cccc2n1Cc1cccc(Cl)c1 [Compound 6, 1-(3-chlorobenzyl)-4-(piperazin-1-yl)-2-(trifluoromethyl)-1H-benzimidazole]	3.8	1.7						
Fc1cccc(Cn2c(C(F)(F)F)nc3c(N4CCNCC4)cccc32)c1 [Compound 7, 1-(3-fluorobenzyl)-4-(piperazin-1-yl)-2-(trifluoromethyl)-1H-benzimidazole]	2.9	1.6	N.C.	1.9	N.C.	22		
FC(F)(F)c1nc2c(N3CCNCC3)cccc2n1Cc1ccc(Cl)c(Cl)c1 [Compound 8, 1-(3,4-dichlorobenzyl)-4-(piperazin-1-yl)-2-(trifluoromethyl)-1H-benzo[d]imidazole]	2.9	2						
FC(F)(F)c1cc2c(N3CCNCC3)cccc2n1Cc1ccccc1 [Compound 12, 1-benzyl-4-(piperazin-1-yl)-2-(trifluoromethyl)-1H-indole]		0.29	N.C.	0.49	N.C.		2.1	31
CN1CCN(c2cccc3c2cc(C(F)(F)F)n3Cc2ccc(Cl)c(Cl)c2)CC1 [Compound 13, 1-(3,4-dichlorobenzyl)-4-(4-methylpiperazin-1-yl)-2-(trifluoromethyl)-1H-indole]	2.6	0.98	N.C.	9.1	N.C.			
CN1CCN(c2cccc3c2cc(C(F)(F)F)n3Cc2ccc(Cl)c(F)c2)CC1 [Compound 14, 1-(4-chloro-3-fluorobenzyl)-4-(4-methylpiperazin-1-yl)-2-(trifluoromethyl)-1H-indole]	0.39	0.65	N.C.	5.5	N.C.	59		
Fc1cc(Cn2c(C(F)(F)F)cc3c(N4CCNCC4)cccc32)ccc1Cl [Compound 16, 1-(4-chloro-3-fluorobenzyl)-4-(piperazin-1-yl)-2-(trifluoromethyl)-1H-indole]	0.82	0.62	N.C.	4.4	N.C.	55		
COc1cccc(Cn2c(C(F)(F)F)cc3c(N4CCN(C)CC4)cccc32)c1 [Compound 18, 1-(3-methoxybenzyl)-4-(4-methylpiperazin-1-yl)-2-(trifluoromethyl)-1H-indole]	4.2	0.27						
Fc1cccc(Cn2c(C(F)(F)F)cc3c(N4CCNCC4)cccc32)c1 [Compound 19, 1-(3-fluorobenzyl)-4-(piperazin-1-yl)-2-(trifluoromethyl)-1H-indole]		0.35	N.C.	0.14	N.C.		1.3	21
FC(F)(F)c1cc2c(N3CCNCC3)cccc2n1Cc1cccc(Cl)c1 [Compound 20, 1-(3-chloroobenzyl)-4-(piperazin-1-yl)-2-(trifluoromethyl)-1H-indole]			N.C.	1.2	N.C.		2.2	53
CN1CCN(c2cccc3c2cc(C(F)(F)F)n3Cc2ccco2)CC1 [Compound 21, 1-(furan-2-ylmethyl)-4-(4-methylpiperazin-1-yl)-2-(trifluoromethyl)-1H-indole]		0.18	N.C.	0.27	N.C.	4.3		
CN1CCN(c2cccc3c2cc(C(F)(F)F)n3Cc2ccc(F)c(F)c2)CC1 [Compound 22, 1-(3,4-difluorobenzyl)-4-(4-methylpiperazin-1-yl)-2-(trifluoromethyl)-1H-indole]	0.45		N.C.	4.8	N.C.	26		
COc1cccc(Cn2c(C(F)(F)F)cc3c(N4CCNCC4)cccc32)c1 [Compound 23, 1-(3-methoxybenzyl)-4-(piperazin-1-yl)-2-(trifluoromethyl)-1H-indole]			N.C.	0.26	N.C.	28		
CN1CCN(c2cccc3c2cc(C(F)(F)F)n3Cc2cccc(F)c2)CC1 [Compound 24, 1-[(3-fluorophenyl)methyl]-4-(4-methylpiperazin-1-yl)-2-(trifluoromethyl)-1H-indole]	0.73	0.092	N.C.	1.1	N.C.	28		
Fc1ccc(Cn2c(C(F)(F)F)cc3c(N4CCNCC4)cccc32)cc1F [Compound 25, 1-(3,4-difluorobenzyl)-4-(piperazin-1-yl)-2-(trifluoromethyl)-1H-indole]	0.71	0.37	N.C.	0.65	N.C.	20		
CN1CCN(c2cccc3c2cc(C(F)(F)F)n3Cc2ccccc2)CC1 [Compound 26, 1-benzyl-4-(4-methylpiperazin-1-yl)-2-(trifluoromethyl)-1H-indole]	0.91	0.087						
CN1CCN(c2cccc3c2cc(C(F)(F)F)n3Cc2cccc(Cl)c2)CC1 [Compound 27, 1-(3-chlorobenzyl)-4-(4-methylpiperazin-1-yl)-2-(trifluoromethyl)-1H-indole]			N.C.	0.31	N.C.	56		
Cc1ccc(Cn2c(C(F)(F)F)cc3c(N4CCNCC4)cccc32)o1 [Compound 28, 1-[(5-methylfuran-2-yl)methyl]-4-(piperazin-1-yl)-2-(trifluoromethyl)-1H-indole]		4	N.C.	0.25	N.C.		0.48	16
